Usually EC50 stands for the concentration giving half of the maximal effect.

Bounds are passed on as bounds.

Experimental findings from US9018208B2, “Heterocycles as potassium channel modulators” (Icagen Inc., priority 2007, dated 2015) are described below.

In the assay the test system is SH-SY5Y M-currents (KCNQ2, KCNQ3 and KCNQ5). The assay is described as follows: SH-SY5Y native cell line FLIPR assay (voltage-sensitive dye DiBAC). To be noted: FLIPR assay, SH-SY5Y native cell line; Table 2; read-out: SH-SY5Y EC50. The assay is classed as cell-based, mouse neuroblastoma, rat glioma hybrid cell line. In a few lines: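 Response is peak DiBAC fluorescence change, normalised to the maximum from a positive control agent, sampled every 30 s over 25 min. Before compound addition, SH-SY5Y cells differentiated with PGE1 plus isomethylbutylxanthine were dye-loaded for 1 h in EBSS with […] DiBAC.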
For the molecule `Cc1c(F)ccc(-c2c(NC(=O)CC(C)(C)C)nc3ccc(F)cn23)c1F` [Compound 256, N-(3-(2,4-difluoro-3-methylphenyl)-6-fluoroimidazo[1,2-a]pyridin-2-yl)-3,3-dimethylbutanamide], the EC50 fell in the range of 500 to 3000 nM.

For `Cc1cc(-c2c(NC(=O)CC(C)(C)C)nc3ccc(F)cn23)ccc1Cl` [Compound 257, N-(3-(4-chloro-3-methylphenyl)-6-fluoroimidazo[1,2-a]pyridin-2-yl)-3,3-dimethylbutanamide], the EC50 is less than 500 nM.

As for `Cc1ccc(-c2c(NC(=O)CC(C)(C)C)nc3ccc(F)cn23)cc1Cl` [Compound 258, N-(3-(3-chloro-4-methylphenyl)-6-fluoroimidazo[1,2-a]pyridin-2-yl)-3,3-dimethylbutanamide], the EC50 was less than 500 nM.

Consider `CC(C)(C)CC(=O)Nc1nc2ccc(C#N)cn2c1-c1ccc(C(F)(F)F)cc1` [Compound 259, N-(6-cyano-3-(4-(trifluoromethyl)phenyl)imidazo[1,2-a]pyridin-2-yl)-3,3-dimethylbutanamide], for which the EC50 was less than 500 nM.

Regarding `N#Cc1ccc2nc(NC(=O)Cc3ccc(F)cc3)c(-c3ccc(C(F)(F)F)cc3)n2c1` [Compound 260, N-(6-cyano-3-(4-(trifluoromethyl)phenyl)imidazo[1,2-a]pyridin-2-yl)-2-(4-fluorophenyl)acetamide], the EC50 is less than 500 nM.

For the molecule `CC(C)(C)CC(=O)Nc1nc2c(F)cc(F)cn2c1-c1ccc(OC(F)(F)F)cc1` [Compound 262, N-(6,8-difluoro-3-(4-(trifluoromethoxy)phenyl)imidazo[1,2-a]pyridin-2-yl)-3,3-dimethylbutanamide], the EC50 is less than 500 nM.

With `O=C(CC(F)(F)F)Nc1nc2ccc(F)cn2c1-c1cccc(OC(F)(F)F)c1` [Compound 263, 3,3,3-trifluoro-N-(6-fluoro-3-(3-(trifluoromethoxy)phenyl)imidazo[1,2-a]pyridin-2-yl)propanamide], the EC50 fell in the range of 500 to 3000 nM.

On to `O=C(CC1CCCC1)Nc1nc2ccc(F)cn2c1-c1cccc(OC(F)(F)F)c1` [Compound 264, 2-cyclopentyl-N-(6-fluoro-3-(3-(trifluoromethoxy)phenyl)imidazo[1,2-a]pyridin-2-yl)acetamide], for which the concentration giving a half-maximal response (EC50) was less than 500 nM.

With `O=C(CC1CC1)Nc1nc2ccc(F)cn2c1-c1cccc(OC(F)(F)F)c1` [Compound 265, 2-cyclopropyl-N-(6-fluoro-3-(3-(trifluoromethoxy)phenyl)imidazo[1,2-a]pyridin-2-yl)acetamide], the EC50 was in the range of 500 to 3000 nM.

Regarding `O=C(CC1CCC1)Nc1nc2ccc(F)cn2c1-c1cccc(OC(F)(F)F)c1` [Compound 266, 2-cyclobutyl-N-(6-fluoro-3-(3-(trifluoromethoxy)phenyl)imidazo[1,2-a]pyridin-2-yl)acetamide], the EC50 was less than 500 nM.

Take `O=C(CC(F)(F)F)Nc1nc2ccc(F)cn2c1-c1cccc(C(F)(F)F)c1` [Compound 267, 3,3,3-trifluoro-N-(6-fluoro-3-(3-(trifluoromethyl)phenyl)imidazo[1,2-a]pyridin-2-yl)propanamide]: the EC50 is 500 to 3000 nM.

For the molecule `O=C(CC1CCCC1)Nc1nc2ccc(F)cn2c1-c1cccc(C(F)(F)F)c1` [Compound 268, 2-cyclopentyl-N-(6-fluoro-3-(3-(trifluoromethyl)phenyl)imidazo[1,2-a]pyridin-2-yl)acetamide], the concentration giving a half-maximal response (EC50) is less than 500 nM.

As for `O=C(CC1CC1)Nc1nc2ccc(F)cn2c1-c1cccc(C(F)(F)F)c1` [Compound 269, 2-cyclopropyl-N-(6-fluoro-3-(3-(trifluoromethyl)phenyl)imidazo[1,2-a]pyridin-2-yl)acetamide], the EC50 was in the range of 500 to 3000 nM.

Turning to `O=C(CC1CCC1)Nc1nc2ccc(F)cn2c1-c1cccc(C(F)(F)F)c1` [Compound 270, 2-cyclobutyl-N-(6-fluoro-3-(3-(trifluoromethyl)phenyl)imidazo[1,2-a]pyridin-2-yl)acetamide], the EC50 was less than 500 nM.

With `O=C(Cc1ccc(F)cc1)Nc1nc2ccc(Cl)nn2c1-c1ccc(C(F)(F)F)cc1` [Compound 272, N-(6-chloro-3-(4-(trifluoromethyl)phenyl)imidazo[1,2-b]pyridazin-2-yl)-2-(4-fluorophenyl)acetamide], the EC50 lay within 500 to 3000 nM.

Regarding `Cc1ccc(-c2c(NC(=O)CC(C)(C)C)nc3ccc(F)cn23)cc1` [Compound 273, N-(6-fluoro-3-p-tolylimidazo[1,2-a]pyridin-2-yl)-3,3-dimethylbutanamide], the EC50 is 500 to 3000 nM.

As for `O=C(CCC1CC1)Nc1nc2ccc(F)cn2c1-c1cccc(OC(F)(F)F)c1` [Compound 274, 3-cyclopropyl-N-(6-fluoro-3-(3-(trifluoromethoxy)phenyl)imidazo[1,2-a]pyridin-2-yl)propanamide], the EC50 was less than 500 nM.

Take `O=C(CCC(F)(F)F)Nc1nc2ccc(F)cn2c1-c1cccc(OC(F)(F)F)c1` [Compound 275, 4,4,4-trifluoro-N-(6-fluoro-3-(3-(trifluoromethoxy)phenyl)imidazo[1,2-a]pyridin-2-yl)butanamide]: the EC50 lay in the range of 500 to 3000 nM.

In the case of `CC(CC(=O)Nc1nc2ccc(F)cn2c1-c1cccc(OC(F)(F)F)c1)C(F)(F)F` (centres unmarked) [Compound 276, 4,4,4-trifluoro-N-(6-fluoro-3-(3-(trifluoromethoxy)phenyl)imidazo[1,2-a]pyridin-2-yl)-3-methylbutanamide], the EC50 is less than 500 nM.

On to `CC(C)(C)OCCC(=O)Nc1nc2ccc(F)cn2c1-c1cccc(OC(F)(F)F)c1` [Compound 277, 3-tert-butoxy-N-(6-fluoro-3-(3-(trifluoromethoxy)phenyl)imidazo[1,2-a]pyridin-2-yl)propanamide], for which the EC50 was less than 500 nM.

Turning to `CC(C)C(C)C(=O)Nc1nc2ccc(F)cn2c1-c1cccc(OC(F)(F)F)c1` (centres unmarked) [Compound 278, N-(6-fluoro-3-(3-(trifluoromethoxy)phenyl)imidazo[1,2-a]pyridin-2-yl)-2,3-dimethylbutanamide], the EC50 was less than 500 nM.

For the molecule `CC(C)(C)CCC(=O)Nc1nc2ccc(F)cn2c1-c1cccc(OC(F)(F)F)c1` [Compound 279, N-(6-fluoro-3-(3-(trifluoromethoxy)phenyl)imidazo[1,2-a]pyridin-2-yl)-4,4-dimethylpentanamide], the EC50 is less than 500 nM.

With `O=C(CCC1CC1)Nc1nc2ccc(F)cn2c1-c1cccc(C(F)(F)F)c1` [Compound 280, 3-cyclopropyl-N-(6-fluoro-3-(3-(trifluoromethyl)phenyl)imidazo[1,2-a]pyridin-2-yl)propanamide], the EC50 fell in the range of 500 to 3000 nM.

In the case of `O=C(CCC(F)(F)F)Nc1nc2ccc(F)cn2c1-c1cccc(C(F)(F)F)c1` [Compound 281, 4,4,4-trifluoro-N-(6-fluoro-3-(3-(trifluoromethyl)phenyl)imidazo[1,2-a]pyridin-2-yl)butanamide], the EC50 lay in the range of 500 to 3000 nM.

With `CC(CC(=O)Nc1nc2ccc(F)cn2c1-c1cccc(C(F)(F)F)c1)C(F)(F)F` (centres unmarked) [Compound 282, 4,4,4-trifluoro-N-(6-fluoro-3-(3-(trifluoromethyl)phenyl)imidazo[1,2-a]pyridin-2-yl)-3-methylbutanamide], the EC50 was less than 500 nM.

`CC(C)(C)CCC(=O)Nc1nc2ccc(F)cn2c1-c1cccc(C(F)(F)F)c1` [Compound 283, N-(6-fluoro-3-(3-(trifluoromethyl)phenyl)imidazo[1,2-a]pyridin-2-yl)-4,4-dimethylpentanamide]: the EC50 is less than 500 nM.
